The record followed here is patent US6420385B1, “Substituted pyrimidinone and pyridone compounds and methods of use” (Amgen Inc., priority 1996, dated 2002).

The subject of the experiment is TNF production by monocytes activated with bacterial lipopolysaccharide (LPS). In words: Lipopolysaccharide-activated monocyte TNF production assay (LPS induced TNF release). The experiment is classed as cell-based, human. Conditions: TNF in supernatant by ELISA. On the procedure:
Lipopolysaccharide-activated Monocyte TNF Production Assay
Test compounds were evaluated in vitro for the ability to inhibit the production of TNF by monocytes activated with bacterial lipopolysaccharide (LPS). Fresh residual source leukocytes (a byproduct of plateletpheresis) were obtained from a local blood bank, and peripheral blood mononuclear cells (PBMCs) were isolated by density gradient centrifugation on Ficol-Paque Plus (Pharmacia). PBMCs were suspended at 2×10^6/ ml in DMEM supplemented to contain 2% FCS, 10 mM, 0.3 mg/ml glutamate, 100 U/ml penicillin G and […] streptomycin sulfate (complete media). Cells were plated into Falcon flat bottom, 96 well culture plates (200 μl/well) and cultured overnight at 37° C. and 6% CO2. Non-adherent cells were removed by washing with 200 μl/well of fresh medium. Wells containing adherent cells (˜70% monocytes) were replenished with 100 μl of fresh medium.
Preparation of Test Compound Stock Solutions
Test compounds were dissolved in […]. Compound stock solutions were prepared to an initial concentration of […]. Stocks were diluted initially to 20-200 μM in complete media. Nine two-fold serial dilutions of each compound were then prepared in complete medium.
Treatment of Cells with Test Compounds and Activation of TNF Production with Lipopolysaccharide
One hundred microliters of each test compound dilution were added to microtiter wells containing adherent monocytes and 100 μl complete medium. Monocytes were cultured with test compounds for 60 min at which time 25 μl of complete medium containing 30 ng/ml lipopolysaccharide from E. coli K532 were added to each well. Cells were cultured an additional 4 hrs. Culture supernatants were then removed and TNF presence in the supernatants was quantified using an ELISA.
Flat bottom, 96 well Corning High Binding ELISA plates were coated overnight (4° C.) with 150 μL/well of 3 μg/ml murine anti-human TNF-α MAb (R&D Systems #MAB210). Wells were then blocked for 1 hr at room temperature with 200 μL/well of CaCl2-free ELISA buffer supplemented to contain 20 mg/ml BSA (standard ELISA buffer: […], 150 mM NaCl, 2 mM CaCl2, 0.15 mM thimerosal, pH 7.4). Plates were washed and replenished with 100 μl of test supernatants (diluted 1:3) or standards. Standards consisted of eleven 1.5-fold serial dilutions from a stock of 1 ng/ml recombinant human TNF (R&D Systems). Plates were incubated at room temperature for 1 hr on orbital shaker (300 rpm), washed and replenished with 100 μl/well of 0.5 μg/ml goat anti-human TNF-α (R&D systems #AB-210-NA) biotinylated at a 4:1 ratio. Plates were incubated for 40 min, washed and replenished with 100 μl/well of alkaline phosphatase-conjugated streptavidin (Jackson ImmunoResearch #016-050-084) at 0.02 μg/ml. Plates were incubated 30 min, washed and replenished with 200 μl/well of 1 mg/ml of p-nitrophenyl phosphate. After 30 min, plates were read at […] on a Vmax plate reader.
Standard curve data were fit to a second order polynomial and unknown TNF-α concentrations determined from their OD by solving this equation for concentration. TNF concentrations were then plotted vs. test compound concentration using a second order polynomial. This equation was then used to calculate the concentration of test compounds causing a 50% reduction in TNF production.
(ELISA stands for enzyme-linked immunosorbent assay.)

As a reminder, the IC50 is the concentration at which inhibition is half-maximal. Read a high IC50 as a need for much substance. Take `Cn1c(NCCC(N)c2ccccc2)nc(-c2ccncc2)c(-c2cccc(C(F)(F)F)c2)c1=O` (stereo not shown) [2-((3-Amino-3-phenylpropyl)-amino)-3-methyl-6-(4-pyridyl)5-(3-trifluoromethylphenyl)-4-(3H)-pyrimidinone]: the IC50 is no more than 5 µM. For `O=c1[nH]c(-c2cccs2)cc(-c2ccncc2)c1-c1ccccc1` [3-Phenyl-4-(4-pyridyl)-6-(2-thienyl)-2(1H)-pyridone], the IC50 (Homo sapiens, Monocyte) is no more than 20 µM. For the setting “Homo sapiens, Monocyte”, `O=c1[nH]c(-c2ccccc2)cc(-c2ccncc2)c1-c1ccccc1` [3,6-Diphenyl-4-(4-pyridyl)-2(1H)-pyridone] registered an IC50 of no more than 20 µM. On the same count and under the same terms, the value for `Cc1ccc(-c2cc(-c3ccncc3)c(-c3ccccc3)c(=O)[nH]2)cc1` [6-(4-Methylphenyl)-3-phenyl-4-(4-pyridyl)-2(1H)-pyridone] was no more than 20 µM. Turning to `Cc1ccccc1C(N)CCNc1nc(-c2ccncc2)c(-c2cccc(C(F)(F)F)c2)c(=O)n1C` (stereo not shown) [2-((3-Amino-3-(2-methylphenyl)propyl)-amino)-3-methyl-6-(4-pyridyl)5-(3-trifluoromethylphenyl)-4-(3H)-pyrimidinone], the IC50 is no more than 5 µM. Under “Homo sapiens, Monocyte”, `Cc1ccc(-c2cc(-c3ccncc3)c(-c3ccccc3)c(=O)[nH]2)c(C)c1` [6-(2,4-Dimethylphenyl)-3-phenyl-4-(4-pyridyl)-2(1H)-pyridone] yielded an IC50 of no more than 20 µM. For the molecule `O=c1[nH]c(-c2ccco2)cc(-c2ccncc2)c1-c1ccccc1` [6-(2-Furyl)-3-phenyl-4-(4-pyridyl)-2(1H)-pyridone], where the note is “Homo sapiens, Monocyte”, the IC50 was no more than 20 µM.
